Reference: ChEMBL document CHEMBL3046541, “Design and synthesis of 2-chloroquinoline derivatives as non-azoles antimycotic agents” (2011)

Tests used:
Type in all cases: functional
Penicillium citrinum [1] = experiment: Antifungal activity against Penicillium citrinum NCIM 768 at 200 ug/ml after 72 hr by cup-plate method; conditions: NCIM 768, 72 h, read-out: IZ
Monascus purpureus [2] = experiment: Antifungal activity against Monascus purpureus MTCC 369 at 200 ug/ml after 72 hr by cup-plate method; conditions: MTCC 369, 72 h, read-out: IZ
Aspergillus flavus [3] = experiment: Antifungal activity against Aspergillus flavus MTCC 277 at 200 ug/ml after 72 hr by cup-plate method; conditions: MTCC 277, 72 h, read-out: IZ
Aspergillus niger [4] = experiment: Antifungal activity against Aspergillus niger MTCC 281 at 200 ug/ml after 72 hr by cup-plate method; conditions: MTCC 281, 72 h, read-out: IZ
Aspergillus niger [5] = experiment: Antifungal activity against Aspergillus niger MTCC 281 at 100 ug/ml after 72 hr by cup-plate method; conditions: MTCC 281, 72 h, read-out: IZ
Aspergillus flavus [6] = experiment: Antifungal activity against Aspergillus flavus MTCC 277 at 100 ug/ml after 72 hr by cup-plate method; conditions: MTCC 277, 72 h, read-out: IZ
Penicillium citrinum [7] = experiment: Antifungal activity against Penicillium citrinum NCIM 768 at 100 ug/ml after 72 hr by cup-plate method; conditions: NCIM 768, 72 h, read-out: IZ
Monascus purpureus [8] = experiment: Antifungal activity against Monascus purpureus MTCC 369 at 100 ug/ml after 72 hr by cup-plate method; conditions: MTCC 369, 72 h, read-out: IZ

SMILES | zone of inhibition at 200 µg/mL (Penicillium citrinum [1]) [mm] | zone of inhibition at 200 µg/mL (Monascus purpureus [2]) [mm] | zone of inhibition at 200 µg/mL (Aspergillus flavus [3]) [mm] | zone of inhibition at 200 µg/mL (Aspergillus niger [4]) [mm] | zone of inhibition at 100 µg/mL (Aspergillus niger [5]) [mm] | zone of inhibition at 100 µg/mL (Aspergillus flavus [6]) [mm] | zone of inhibition at 100 µg/mL (Penicillium citrinum [7]) [mm] | zone of inhibition at 100 µg/mL (Monascus purpureus [8]) [mm]
Clc1nc2ccccc2cc1CNc1ccccc1 | 8.06 | 7.7 | 12.4 | 12 | – | – | – | –
Clc1ccc(NCc2cc3ccccc3nc2Cl)cc1 | 10.3 | 9.73 | 16 | 15.9 | – | – | – | –
Cc1ccc(NCc2cc3ccccc3nc2Cl)cc1 | 8.06 | 7.63 | 12.8 | 10.9 | – | – | – | –
Clc1nc2ccccc2cc1CNc1ccc(Br)cc1 | 9.86 | 8 | 10.5 | 13.7 | – | – | – | –
Clc1cccc(NCc2cc3ccccc3nc2Cl)c1 | 8.03 | 9.63 | 11.6 | 13.4 | – | – | – | –
COc1ccc(NCc2cc3ccccc3nc2Cl)cc1 | 7.63 | 7.66 | 13 | 10.8 | – | – | – | –
Fc1ccc(NCc2cc3ccccc3nc2Cl)cc1 | 8.53 | 9.8 | 15 | 14.8 | – | – | – | –
O=[N+]([O-])c1ccc(NCc2cc3ccccc3nc2Cl)cc1 | 6.13 | 7.7 | 8.33 | 8.06 | – | – | – | –
Cc1cccc(NCc2cc3ccccc3nc2Cl)c1 | 5.73 | 7.6 | 10.1 | 9.53 | – | – | – | –
Cc1ccccc1NCc1cc2ccccc2nc1Cl | 7.03 | 6.4 | 7.03 | 8.66 | – | – | – | –
Fc1ccc(NCc2cc3ccccc3nc2Cl)cc1Cl | 9.73 | 11.5 | 19.7 | 17.8 | – | – | – | –
Clc1ccccc1NCc1cc2ccccc2nc1Cl | 7.06 | 7.33 | 10.6 | 13.9 | – | – | – | –
Clc1ccc(NCc2cc3ccccc3nc2Cl)cc1Cl | 8.76 | 9.7 | 18.7 | 19.6 | – | – | – | –
Clc1nc2ccccc2cc1CNC1CCCCC1 | – | – | – | 6.27 | – | – | – | –
CCCCNCc1cc2ccccc2nc1Cl | – | – | 8.25 | 9.47 | – | – | – | –
Clc1nc2ccccc2cc1CNCc1ccccc1 | 9.06 | 8.4 | 14.5 | 15.7 | – | – | – | –
CN(Cc1cc2ccccc2nc1Cl)c1ccccc1 | 9.74 | 8.09 | 14.2 | 13.2 | – | – | – | –
CN(Cc1cc2ccccc2nc1Cl)c1ccc(Cl)cc1 | 9.85 | 10.5 | 17.7 | 17.1 | – | – | – | –
CN(Cc1cc2ccccc2nc1Cl)c1cccc(Cl)c1 | 11.1 | 9.63 | 12.1 | 15.2 | – | – | – | –
CN(Cc1cc2ccccc2nc1Cl)c1ccc(F)cc1 | 9.77 | 11.5 | 17.1 | 15.9 | – | – | – | –
CN(Cc1cc2ccccc2nc1Cl)c1ccc(F)c(Cl)c1 | 10.4 | 13.1 | 20.8 | 19.4 | – | – | – | –
CN(Cc1cc2ccccc2nc1Cl)c1ccc(Cl)c(Cl)c1 | 11.1 | 10.4 | 19.5 | 21.1 | – | – | – | –
CN(C/C=C/C#CC(C)(C)C)Cc1cccc2ccccc12 [TERBINAFINE] | – | – | – | – | 24.7 | 25.1 | 21.8 | 26.2
